The values below come from PMC8163506, “A novel ATP dependent dimethylsulfoniopropionate lyase in bacteria that releases dimethyl sulfide and acryloyl-CoA” (eLife, 2021).

This assay addresses T1, DddX (Psychrobacter sp., UniProt Z9QGV9JXN0).
T1 construct: full length (2247 bp gene), pET-22b, C-terminal His tag, E. coli BL21(DE3); dimer in solution
T1 sequence (Z9QGV9JXN0 1-748): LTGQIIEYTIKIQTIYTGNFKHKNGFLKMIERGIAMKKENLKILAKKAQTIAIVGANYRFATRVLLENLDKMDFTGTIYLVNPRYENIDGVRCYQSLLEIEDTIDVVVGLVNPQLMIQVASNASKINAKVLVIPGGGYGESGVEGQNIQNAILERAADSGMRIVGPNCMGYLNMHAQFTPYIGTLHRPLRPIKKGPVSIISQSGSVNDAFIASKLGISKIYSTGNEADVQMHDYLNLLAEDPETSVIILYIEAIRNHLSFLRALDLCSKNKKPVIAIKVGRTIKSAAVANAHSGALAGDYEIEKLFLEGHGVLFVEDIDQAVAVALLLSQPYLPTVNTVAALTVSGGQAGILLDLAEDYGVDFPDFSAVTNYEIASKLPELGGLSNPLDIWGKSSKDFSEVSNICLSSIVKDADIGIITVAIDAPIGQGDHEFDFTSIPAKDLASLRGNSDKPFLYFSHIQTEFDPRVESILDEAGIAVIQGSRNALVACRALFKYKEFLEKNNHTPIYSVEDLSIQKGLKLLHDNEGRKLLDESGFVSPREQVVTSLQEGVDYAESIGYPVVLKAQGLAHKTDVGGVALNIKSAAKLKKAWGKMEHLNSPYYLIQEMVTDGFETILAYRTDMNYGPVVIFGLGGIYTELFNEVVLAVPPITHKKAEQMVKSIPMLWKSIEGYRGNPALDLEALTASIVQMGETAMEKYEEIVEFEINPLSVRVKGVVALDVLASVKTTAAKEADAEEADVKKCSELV
Briefly: X-ray crystal structure of complex. The format is binding. The settings on record: 1 mM ATP incubated with protein; ATP-grasp domain; crystals at pH 5.5, 18 °C.

Turning to `Nc1ncnc2c1ncn2[C@@H]1O[C@H](COP(=O)(O)OP(=O)(O)OP(=O)(O)O)[C@@H](O)[C@H]1O` [ATP], the “X-ray crystal structure of complex” value is “we solved the crystal structure of DddX in complex with ATP”.
